Entries after “also recorded” stand apart in the source; their conditions may differ. Read-outs that look alike come from different tables or passages of the source.
Experiments:
[1] = tested on: MS patients; experiment: ASCLEPIOS I: loss of thalamus volume; format: in vivo, human; settings: for thalamus volume, mean percentage change between Month 24 and baseline: ASCLEPIOS I
Protocol: (§1) In ASCLEPIOS I patients were randomised (1:1) to receive either ofatumumab 20 mg sc injections every 4 weeks (after an initial loading regimen of 20 mg sc doses on Days 1, 7 and 14) or teriflunomide 14 mg orally once daily, for up to 30 months. Patients aged 18-55 years with an Expanded Disability Status Scale (EDSS) score (according to Kurtzke, Neurology. 1983, November; 33(11): 1444-52) of 0-5.5 at screening who experienced ≥1 relapse in the past year or ≥2 relapses in the past 2 years or a positive gadolinium-enhancing (Gd+) MM scan during the year before randomisation were included.

[2] = tested on: MS patients; experiment: ASCLEPIOS I: MSIS-29 impact score; format: in vivo, human
Protocol: The MSIS-29 version 2 is a 29-item, self-administered questionnaire that includes 2 domains: physical and psychological. Responses were captured on a 4-point ordinal scale ranging from 1 (not at all) to 4 (extremely), with higher scores reflecting greater impact on day-to-day life. The MSIS-29 takes about 5 minutes to complete and the questions are designed to determine the patient's views about the impact of MS on their day-to-day life during the past 2 weeks. Reference is made to Hobart J and Cano S (2009), “Improving the evaluation of therapeutic interventions in multiple sclerosis: the role of new psychometric methods”, Health Technol Assess; 13(12):iii, ix-x, […] to Hobart J, Lamping D, Fitzpatrick R, et al (2001), “The Multiple Sclerosis Impact Scale (MSIS-29): a new patient-based outcome measure”, Brain; 124(Pt 5):962-73.
as §1

[3] = tested on: patients with multiple sclerosis; settings: cited from earlier work; for clinical and MRI course after anti-CD20 infusion: case reports, rebound after fingolimod cessation (Hatcher et al. 2016; Schmidt and Schulten 2019)
[4] = tested on: patients with relapsing MS; experiment: Number of relapses in patients switched from an earlier DMT to ofatumumab (Example 2); format: in vivo, human; settings: for Mean NURLP12: number of relapses in past 12 months (screening) / Mean NURLP24a: number of relapses in past 24 months (screening): before switch
Protocol: (§2) The effect of ofatumumab administered to patients who have been treated with DMTs other than ofatumumab has been investigated as described below.
(§3) Ofatumumab was provided in pre-filled syringes for subcutaneous administration containing 20 mg ofatumumab (50 mg/ml, 0.4 ml content). The matching placebo to ofatumumab pre-filled syringe had the same appearance as the investigational drug.
(§4) Ofatumumab arm: ofatumumab 20 mg s.c. injections on Day 1, 7, 14, Week 4 (Study Month 1) and every 4 weeks thereafter+teriflunomide-matching placebo capsule orally once daily.
(§5) Eligible patients can be randomized in a 1:1 ratio to either the active ofatumumab 20 mg group or to the active teriflunomide 14 mg group. The randomization was stratified by geographical region and by MS subtype (RRMS, SPMS).
(§6) Diagnosis of MS according to the 2010 Revised McDonald criteria (Polman et al. 2011).
(§7) Relapsing MS: relapsing-remitting course (RRMS), or secondary progressive (SPMS) course with disease activity, as defined by Lublin et al., 2014.
(§8) Disability status at Screening with an EDSS score of 0 to 5.5 (inclusive).
(§9) Patients previously treated with DMT selected from glatiramer acetate, dimethyl fumarate (DMF), daclizumab, fingolimod, natalizumab and laquinimod.
(§10) Documentation of at least: 1 relapse during the previous 1 year OR 2 relapses during the previous 2 years prior to Screening OR a positive Gd-enhancing MM scan during the year prior to randomization. Note: Screening MRI scan may be used if no positive Gd enhancing scan exist from prior year.
(§11) Neurologically stable within 1 month prior to randomization

[5] = Half-life of ofatumumab at steady state; format: in vivo; settings: following subcutaneous administration of repeated 20 mg doses
[6] = tested on: MS patients; settings: cited from earlier work; for reduction in annualized relapse rate (ARR) compared to Aubagio (teriflunomide): p<0.001
[7] = tested on: primary human B cells; experiment: Ofatumumab-induced CDC of freshly isolated primary human B cells; format: cell-based; settings: antibody and 30% human serum added simultaneously, 1 hour, flow cytometry; compared to ocrelizumab and rituximab; FIG. 2
[8] = tested on: patients with relapsing MS; experiment: Gd-enhancing T1 lesion numbers in patients switched from an earlier DMT to ofatumumab (Example 2); format: in vivo, human
Protocol: as §2, §3, §4, §5, §6, §7, §8, §9, §10, §11
The following results were obtained for the Gd lesion numbers.

[9] = tested on: primary human B cells; experiment: CDC after delayed addition of complement; format: cell-based; settings: cells washed, complement source added after 6 hours; FIG. 3
Protocol: In a second experiment, B cells were incubated with antibody as described before, albeit in the absence of a source of complement. Cells were washed as described previously. After 6 hours, the source of complement was added.

[10] = earlier DMT fingolimod, ofatumumab 20 mg s.c.
[11] = earlier DMT fingolimod, ofatumumab 20 mg s.c., listed as OMB

## C/C(O)=C(\C#N)C(=O)Nc1ccc(C(F)(F)F)cc1 [teriflunomide, reference compound]
[1]
  thalamus volume, mean percentage change between Month 24 and baseline: −1.4%
[2]; Month 6
  mean change in MSIS-29 physical impact score from baseline: −0.44
[2]; Month 12
  mean change in MSIS-29 physical impact score from baseline: 0.17
[2]; Month 18
  mean change in MSIS-29 physical impact score from baseline: 0.67
[2]; Month 24
  mean change in MSIS-29 physical impact score from baseline: 0.59
[2]; Month 30
  mean change in MSIS-29 physical impact score from baseline: 0.55

## ocrelizumab: anti-CD20 mAb administered by intravenous infusion
[3]
  clinical and MRI course after anti-CD20 infusion: clinical worsening and new Gd-enhancing MRI lesions
[3]; two patients, more than 3 months after fingolimod withdrawal, FIG. 1
  EDSS course after administration: significant Expanded Disability Status Scale (EDSS) progression

## ofatumumab: recombinant human monoclonal immunoglobulin G1 (IgG1) antibody that binds to human CD20
[4]; earlier DMT DMF
  Mean NCFRLP12: number of relapses up to month 12 post-first dose: 0.21
  Mean NCFRLP24: number of relapses up to month 24 post-first dose: 0.39
  Mean NURLP12: number of relapses in past 12 months (screening): 1.11
  Mean NURLP24a: number of relapses in past 24 months (screening): 2
[4]; earlier DMT daclizumab
  Mean NCFRLP12: number of relapses up to month 12 post-first dose: 0
  Mean NCFRLP24: number of relapses up to month 24 post-first dose: 0
  Mean NURLP12: number of relapses in past 12 months (screening): 1
  Mean NURLP24a: number of relapses in past 24 months (screening): 1.18
[4]; earlier DMT fingolimod
  Mean NURLP12: number of relapses in past 12 months (screening): approx. 1.26
  Mean NURLP24a: number of relapses in past 24 months (screening): 2.28
[4]; earlier DMT fingolimod, listed as OMB
  Mean NURLP12: number of relapses in past 12 months (screening): 1.26
[4]; [10]
  Mean NCFRLP12: number of relapses up to month 12 post-first dose: approx. 0.23
  Mean NCFRLP24: number of relapses up to month 24 post-first dose: about 0.30
[4]; [11]
  Mean NCFRLP12: number of relapses up to month 12 post-first dose: 0.23
  Mean NCFRLP24: number of relapses up to month 24 post-first dose: 0.31
[4]; earlier DMT glatiramer acetate
  Mean NCFRLP12: number of relapses up to month 12 post-first dose: 0.10
  Mean NCFRLP24: number of relapses up to month 24 post-first dose: 0.17
  Mean NURLP12: number of relapses in past 12 months (screening): 1.21
  Mean NURLP24a: number of relapses in past 24 months (screening): 2.13
[4]; earlier DMT natalizumab
  Mean NCFRLP12: number of relapses up to month 12 post-first dose: 0.13
  Mean NCFRLP24: number of relapses up to month 24 post-first dose: 0.2
  Mean NURLP12: number of relapses in past 12 months (screening): 1.2
  Mean NURLP24a: number of relapses in past 24 months (screening): 2.37
[5]
  half-life at steady state: approximately 16 days
[6]; ASCLEPIOS I/II
  suppression of gadolinium (Gd) T1 lesions compared to Aubagio: highly significant suppression
[6]; ASCLEPIOS I
  annualized relapse rate (ARR): 0.11
  reduction in annualized relapse rate (ARR) compared to Aubagio (teriflunomide): 50.5%
[6]; ASCLEPIOS II
  annualized relapse rate (ARR): 0.10
  reduction in annualized relapse rate (ARR) compared to Aubagio (teriflunomide): 58.5%
[6]; pre-specified pooled analyses, p=0.002
  relative risk reduction in 3-month confirmed disability progression (CDP) versus Aubagio: 34.4%
[6]; pre-specified pooled analyses, p=0.012
  relative risk reduction in 6-month confirmed disability progression (CDP) versus Aubagio: 32.5%
[1]
  thalamus volume, mean percentage change between Month 24 and baseline: −1.00%
[1]; Month 24, p=0.002
  thalamus volume change, mean difference ofatumumab vs teriflunomide: 0.40
[7]
  induction of CDC (B cell lysis, SYTOX Blue+ cells): strong concentration-dependent induction
[2]; Month 6
  mean change in MSIS-29 physical impact score from baseline: −2.75
[2]; Month 6, p=0.017
  MSIS-29 physical impact score, mean difference ofatumumab vs teriflunomide: −2.30
[2]; Month 12
  mean change in MSIS-29 physical impact score from baseline: −2.43
[2]; Month 12, p=0.009
  MSIS-29 physical impact score, mean difference ofatumumab vs teriflunomide: −2.59
[2]; Month 18
  mean change in MSIS-29 physical impact score from baseline: −2.37
[2]; Month 18, p=0.005
  MSIS-29 physical impact score, mean difference ofatumumab vs teriflunomide: −3.05
[2]; Month 24
  mean change in MSIS-29 physical impact score from baseline: −2.6
[2]; Month 24, p=0.008
  MSIS-29 physical impact score, mean difference ofatumumab vs teriflunomide: −3.19
[2]; Month 30
  mean change in MSIS-29 physical impact score from baseline: −3.21
[2]; Month 30, p=0.026
  MSIS-29 physical impact score, mean difference ofatumumab vs teriflunomide: −3.76
[2]; difference statistically significant only at Month 12
  MSIS-29 psychological impact score vs teriflunomide treatment group: stronger reduction
[8]; earlier DMT DMF, BASELINE
  Mean Gd lesion number: 2.02
[8]; earlier DMT DMF, Week 48
  Mean Gd lesion number: 0
[8]; earlier DMT DMF, Week 96
  Mean Gd lesion number: 0
[8]; earlier DMT daclizumab, BASELINE
  Mean Gd lesion number: 0.18
[8]; earlier DMT daclizumab, Week 48
  Mean Gd lesion number: 0
[8]; earlier DMT daclizumab, Week 96
  Mean Gd lesion number: 0
[8]; earlier DMT fingolimod, BASELINE
  Mean Gd lesion number: 2.95
[8]; earlier DMT fingolimod, Week 48
  Mean Gd lesion number: 0.03
[8]; earlier DMT fingolimod, Week 96
  Mean Gd lesion number: 0
[8]; earlier DMT glatiramer acetate, BASELINE
  Mean Gd lesion number: 1.52
[8]; earlier DMT glatiramer acetate, Week 48
  Mean Gd lesion number: 0.02
[8]; earlier DMT glatiramer acetate, Week 96
  Mean Gd lesion number: 0.02
[8]; earlier DMT natalizumab, BASELINE
  Mean Gd lesion number: 2.5
[8]; earlier DMT natalizumab, Week 48
  Mean Gd lesion number: 0.04
[8]; earlier DMT natalizumab, Week 96
  Mean Gd lesion number: 0
[9]
  induction of CDC after delayed addition of complement: potently induced CDC

## rituximab: anti-CD20 mAb administered by intravenous infusion
[3]
  clinical and MRI course after anti-CD20 infusion: clinical worsening; also recorded: persistent Gd-enhancing lesions

Source: patent US20220298253A1, “TREATMENT OF RMS BY SWITCHING THERAPY” (Novartis AG, priority 2019, published 2022)
